Test results: PMC7582672, “Actions of FTY720 (Fingolimod), a Sphingosine-1-Phosphate Receptor Modulator, on Delayed-Rectifier K^+ Current and Intermediate-Conductance Ca^2+-Activated K^+ Channel in Jurkat T-Lymphocytes” (Molecules, 2020)

Biological target: T1, intermediate-conductance Ca2+-activated K+ channel (IKCa, KCa3.1) (Homo sapiens, UniProt O15554)
T1 construct: gene KCNN4
Assay: cell-attached single-channel recording in Jurkat T-lymphocytes (activator)
Assay type: cell-based

T1 sequence (O15554 whole entry): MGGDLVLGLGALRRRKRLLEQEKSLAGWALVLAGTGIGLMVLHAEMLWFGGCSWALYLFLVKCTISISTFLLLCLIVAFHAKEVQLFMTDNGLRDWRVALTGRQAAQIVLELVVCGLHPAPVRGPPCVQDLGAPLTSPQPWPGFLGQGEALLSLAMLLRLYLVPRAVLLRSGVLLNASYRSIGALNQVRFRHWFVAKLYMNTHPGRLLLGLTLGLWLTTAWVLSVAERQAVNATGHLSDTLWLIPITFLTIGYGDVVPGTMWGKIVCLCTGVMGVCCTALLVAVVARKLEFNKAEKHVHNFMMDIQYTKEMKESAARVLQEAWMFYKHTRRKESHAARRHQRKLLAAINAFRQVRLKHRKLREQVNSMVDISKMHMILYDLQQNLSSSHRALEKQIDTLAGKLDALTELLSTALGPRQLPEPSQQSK

In the case of `Oc1cc2ccccc2c2ccccc12` [9-phenanthrol], the “cell-attached single-channel recording in Jurkat T-lymphocytes (activator)” value is reported as “activity of IKCa channels, which was sensitive to block by TRAM-34 and to stimulation by 9-phenanthrol, was readily detected”.
